ChEMBL document CHEMBL5233251, “Epoxide containing molecules: A good or a bad drug design approach” (Eur J Med Chem, 2020)
pEC50, pIC50: −log10 of the molar value. Converted amounts (≈) assume the structure as drawn. One block for each compound: values may come before it. Where a SMILES comes first, the peptide text is derived from it. [ ]: non-standard residue; d: D form. Aoe = N[C@@H](CCCCCC(=O)[C@@H]1CO1)C(=O)O

Legend:
[1] = (§1) Cytotoxicity against HUVEC cells assessed as inhibition of cell growth incubated for 72 hrs by MTT assay; type: toxicity, cell-based, Homo sapiens; details: human, HUVEC cells
[2] = tested on: MIA PaCa-2; assay: Cytotoxicity against human MIA PaCa-2 cells assessed as inhibition of cell proliferation incubated for 72 hrs by MTT assay; type: functional, cell-based
[3] = Cytotoxicity against human DeFew cells assessed as inhibition of cell proliferation incubated for 72 hrs by MTT assay; type: functional, cell-based
[4] = tested on: MCF7; assay: Cytotoxicity against human MCF7 cells incubated for 24 hrs by MTT assay; type: functional, cell-based; details: MCF7, 24 h
[5] = tested on: HUVEC; assay: as §1; type: toxicity, cell-based, Homo sapiens; details: huvec
[6] = tested on: DOHH-2; assay: Antitumor activity against human DOHH-2 cells assessed as reduction in cell viability; type: functional, cell-based
[7] = tested on: SUD4; assay: Antitumor activity against human SU-DHL-4 cells assessed as reduction in cell viability; type: functional, cell-based
[8] = Antitumor activity against human INA-6 cells assessed as reduction in cell viability; type: functional, cell-based
[9] = tested on: RPMI-8226; assay: Antitumor activity against human RPMI-8226 cells assessed as reduction in cell viability; type: functional, cell-based
[10] = Induction of apoptosis in human multiple myeloma cell; type: functional, cell-based
[11] = tested on: SW480; assay: Induction of apoptosis in human SW480 cells assessed as accumulation of cells at 5 uM incubated for 24 hrs by Acridine orange/ethidium bromide staining based fluorescent microscopic analysis (reference value: 13.6%); type: functional
[12] = tested on: HCT-116; assay: Antiproliferative activity against human HCT-116 cells assessed as inhibition of cell growth at 25 ug/ml incubated for 72 hrs by MTT assay relative to control; type: functional; set-up: scale not given: the % may be the effect or the level left; details: dose 25 µg/ml
[13] = tested on: OVCAR-8; assay: Antiproliferative activity against human OVCAR-8 cells assessed as inhibition of cell growth at 25 ug/ml incubated for 72 hrs by MTT assay relative to control; type: functional; set-up: scale not given: the % may be the effect or the level left; details: dose 25 µg/ml
[14] = tested on: SF-295; assay: Antiproliferative activity against human SF-295 cells assessed as inhibition of cell growth at 25 ug/ml incubated for 72 hrs by MTT assay relative to control; type: functional; set-up: scale not given: the % may be the effect or the level left; details: dose 25 µg/ml
[15] = tested on: HCT-116; assay: Antiproliferative activity against human HCT-116 cells assessed as inhibition of cell growth incubated for 72 hrs by MTT assay; type: functional, cell-based; details: HCT-116, 72 h
[16] = tested on: OVCAR-8; assay: Antiproliferative activity against human OVCAR-8 cells assessed as inhibition of cell growth incubated for 72 hrs by MTT assay; type: functional, cell-based; details: OVCAR-8, 72 h
[17] = tested on: SF-295; assay: Antiproliferative activity against human SF-295 cells assessed as inhibition of cell growth incubated for 72 hrs by MTT assay; type: functional, cell-based; details: SF-295, 72 h
[18] = tested on: HL-60; assay: Antiproliferative activity against human HL-60 cells assessed as inhibition of cell growth incubated for 72 hrs by MTT assay; type: functional, cell-based; details: HL-60, 72 h
[19] = tested on: Leishmania donovani; assay: Antileishmanial activity against Leishmania donovani promastigotes; type: functional, organism-based
[20] = tested on: T47D; assay: Antiproliferative activity against human T47D cells assessed as inhibition of cell proliferation incubated for 72 hrs by DAPI staining based flow cytometric analysis; type: functional
[21] = Antiproliferative activity against human SH-EP cells assessed as inhibition of cell growth by tryphan blue exclusion assay; type: functional, cell-based
[22] = tested on: BE(2)-C; assay: Antiproliferative activity against human BE2C cells assessed as inhibition of cell growth by tryphan blue exclusion assay; type: functional, cell-based
[23] = tested on: A549; assay: Antiproliferative activity against human A549 cells assessed as reduction in cell viability incubated for 72 hrs by MTT assay; type: functional, cell-based; details: A549, 72 h
[24] = tested on: NCI-H460; assay: Antiproliferative activity against human NCI-H460 cells assessed as reduction in cell viability incubated for 72 hrs by MTT assay; type: functional, cell-based; details: NCI-H460, 72 h
[25] = tested on: NCI-H1299; assay: Antiproliferative activity against human NCI-H1299 cells assessed as reduction in cell viability incubated for 72 hrs by MTT assay; type: functional, cell-based; details: NCI-H1299, 72 h
[26] = tested on: SK-MES-1; assay: Antiproliferative activity against human SK-MES-1 cells assessed as reduction in cell viability incubated for 72 hrs by MTT assay; type: functional, cell-based; details: SK-MES-1, 72 h
[27] = tested on: Calu-3; assay: Antiproliferative activity against human Calu-3 cells assessed as reduction in cell viability incubated for 72 hrs by MTT assay; type: functional, cell-based; details: Calu-3, 72 h
[28] = Cytotoxicity against human BEAS-2B assessed as reduction in cell viability incubated for 72 hrs by MTT assay; type: toxicity, cell-based; details: BEAS-2B cells
[29] = tested on: Ehrlich; assay: Antitumor activity against mouse Ehrlich cells implanted in ddY mouse assessed as T/C ratio at 70 mg/kg administered for 9 to 10 days; type: functional; details: time 9-10 day
[30] = tested on: Sarcoma-180; assay: Antitumor activity against mouse Sarcoma-180 cells ascitic form implanted in ICR mouse assessed as T/C ratio at 100 mg/kg, ip administered from day 1 to 5 and measured after 60 days; type: functional; details: time 60 day
[31] = tested on: Sarcoma-180; assay: Antitumor activity against mouse Sarcoma-180 cells solid form implanted in ICR mouse assessed as T/C ratio at 12.5 mg/kg, ip administered from day 1 to 5 and measured after 60 days; type: functional; details: time 60 day
[32] = Antitumor activity against IMC (unknown origin) cells xenografted in CDF1 mouse assessed as T/C ratio at 200 mg/kg, ip administered from day 1 to 5 and measured after 60 days; type: functional; details: time 60 day
[33] = tested on: B16; assay: Antitumor activity against mouse B16 cells implanted in BDF1 mouse assessed as T/C ratio at 25 mg/kg, ip administered from day 1 to 5 and measured after 60 days; type: functional; details: time 60 day

SMILES: CC(C)=CCCC1(C)OC1C=O (stereo in doubt; 10b)
IC50 at 72 h [1]: 162 µM
pIC50 ([2]; Homo sapiens, MIA PaCa-2, 72 h): 4.03
pIC50 ([3]; Homo sapiens, DeFew, 72 h): 4.05

SMILES: COc1cc(CNC(=O)CCCCC2OC2C(C)C)ccc1O (stereo not given)
pIC50 [4]: 4.30

SMILES: CC(C)=CCCC1(C)OC1C=O (stereo in doubt; 10a)
pIC50 [5]: 3.70
pIC50 ([2]; mia paca-2): 4.05
pIC50 ([3]; defew): 4.35

pEC50 [9]: 5.12
pEC50 [10]: 4.96
SMILES: CC1=C(O)C(=O)c2c(ccc(O)c2O)C1=O [DIONCOQUINONE B]
pEC50 [6]: 5.12
pEC50 [7]: 5.12
pEC50 [8]: 5.12

SMILES: C[C@H]1C(=O)OC([C@@H](O)[C@](C)(O)[C@H]2[C@@H](O)C[C@H]3[C@@H]4C[C@H]5O[C@]56[C@@H](O)C=CC(=O)[C@]6(C)[C@H]4CC[C@]23C)[C@@H]1C (stereo not given in full)
Activity [11]: 33.8%

IC50 [15]: 1.03 µg/mL (≈ 6.2 µM)
IC50 [16]: 1.03 µg/mL (≈ 6.2 µM)
IC50 [18]: 1.03 µg/mL (≈ 6.2 µM)
IC50 [19]: 3.87 µg/mL (≈ 23.3 µM)
SMILES: C[C@]1([C@H]2CC=C(C=O)CC2)CO1
Activity [12]: 96.32%
Activity [13]: 96.32%
Activity [14]: 96.32%
IC50 [17]: 1.03 µg/mL (≈ 6.2 µM)

SMILES: C[C@@H]1NC(=O)[C@@H](C)NC(=O)[C@H](CCCCCC(=O)[C@@H]2CO2)NC(=O)[C@H]2CCCN2C1=O (cyclo(A[dP][Aoe][dA]))
pIC50 [20]: 7.43
pIC50 [21]: 7.74
pIC50 [22]: 7.82

SMILES: CC(=O)O[C@H]1[C@H]2O[C@]23[C@@H]2CC[C@@H]4C[C@@H](O)CC[C@]4(C)[C@H]2CC[C@]3(C)[C@H]1c1ccc(=O)oc1 [CINOBUFAGIN]
pIC50 [23]: 5.64
pIC50 [24]: 5.64
pIC50 [25]: 5.64
pIC50 [26]: 5.64
pIC50 [27]: 5.64
IC50 at 72 h [28]: 22.3 µM

SMILES: CO[C@H]1[C@@H](OC)C[C@H](C)[C@@H](OC)C2=CC(=O)C(N3CCN(C)CC3)=C(NC(=O)/C(C)=C/C=C\[C@H](OC)[C@H](OC(N)=O)C3(C)CC3[C@@H]1C)C2=O (stereo not given in full)
T/C [29]: 141%
T/C [30]: 200%
T/C [31]: 167%
T/C [32]: 358%
T/C [33]: 155%
